One assay deals with H1047R PIK3CA enzyme (Homo sapiens, UniProt P42336, H1047R). The assay is described as follows: ADP-Glo Biochemical PIK3CA Kinase Assay.
H1047R PIK3CA enzyme, sequence (P42336 whole entry H1047R): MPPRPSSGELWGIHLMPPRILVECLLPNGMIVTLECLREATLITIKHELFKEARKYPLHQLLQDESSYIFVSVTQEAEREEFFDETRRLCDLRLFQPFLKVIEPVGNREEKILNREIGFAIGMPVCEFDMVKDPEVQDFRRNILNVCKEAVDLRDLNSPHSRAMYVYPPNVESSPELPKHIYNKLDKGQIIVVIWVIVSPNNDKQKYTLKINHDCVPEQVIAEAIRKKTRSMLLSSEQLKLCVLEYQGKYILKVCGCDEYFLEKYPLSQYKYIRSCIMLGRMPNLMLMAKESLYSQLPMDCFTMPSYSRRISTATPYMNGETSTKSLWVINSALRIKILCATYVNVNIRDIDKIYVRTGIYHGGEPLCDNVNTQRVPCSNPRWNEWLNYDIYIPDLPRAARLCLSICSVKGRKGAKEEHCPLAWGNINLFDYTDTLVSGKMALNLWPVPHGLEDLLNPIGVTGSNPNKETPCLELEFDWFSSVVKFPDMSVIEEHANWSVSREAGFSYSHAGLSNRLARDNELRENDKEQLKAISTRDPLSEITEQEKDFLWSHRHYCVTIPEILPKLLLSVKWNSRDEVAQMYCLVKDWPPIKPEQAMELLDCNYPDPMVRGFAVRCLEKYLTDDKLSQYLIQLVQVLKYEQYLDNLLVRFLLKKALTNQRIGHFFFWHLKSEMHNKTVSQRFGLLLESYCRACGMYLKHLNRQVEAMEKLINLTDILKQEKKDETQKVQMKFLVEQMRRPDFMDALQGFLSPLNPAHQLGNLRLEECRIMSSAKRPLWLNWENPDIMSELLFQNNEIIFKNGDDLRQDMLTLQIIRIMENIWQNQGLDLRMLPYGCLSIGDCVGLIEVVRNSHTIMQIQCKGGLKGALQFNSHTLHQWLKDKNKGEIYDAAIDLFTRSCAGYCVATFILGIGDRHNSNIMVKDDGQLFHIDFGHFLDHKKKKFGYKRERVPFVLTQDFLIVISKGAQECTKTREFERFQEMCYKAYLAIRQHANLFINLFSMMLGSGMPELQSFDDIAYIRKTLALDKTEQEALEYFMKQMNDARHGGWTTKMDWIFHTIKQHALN
H1047R PIK3CA enzyme, sequence (P27986 whole entry partner): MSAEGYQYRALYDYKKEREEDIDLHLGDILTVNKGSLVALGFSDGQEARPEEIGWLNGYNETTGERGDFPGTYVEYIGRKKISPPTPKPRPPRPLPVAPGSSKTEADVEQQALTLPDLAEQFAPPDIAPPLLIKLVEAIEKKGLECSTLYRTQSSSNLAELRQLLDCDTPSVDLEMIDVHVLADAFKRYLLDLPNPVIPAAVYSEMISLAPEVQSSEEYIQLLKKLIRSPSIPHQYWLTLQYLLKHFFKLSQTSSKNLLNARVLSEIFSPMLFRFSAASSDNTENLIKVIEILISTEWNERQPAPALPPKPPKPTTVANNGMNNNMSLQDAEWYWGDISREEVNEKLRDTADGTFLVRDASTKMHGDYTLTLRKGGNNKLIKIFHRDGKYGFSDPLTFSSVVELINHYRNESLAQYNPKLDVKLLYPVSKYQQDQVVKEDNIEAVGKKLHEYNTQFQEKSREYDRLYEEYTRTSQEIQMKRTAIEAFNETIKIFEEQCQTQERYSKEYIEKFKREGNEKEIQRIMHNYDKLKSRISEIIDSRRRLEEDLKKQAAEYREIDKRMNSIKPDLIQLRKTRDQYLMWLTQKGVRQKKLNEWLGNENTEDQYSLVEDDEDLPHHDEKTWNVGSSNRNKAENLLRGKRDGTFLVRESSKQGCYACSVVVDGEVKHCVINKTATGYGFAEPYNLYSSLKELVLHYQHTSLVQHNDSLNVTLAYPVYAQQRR
Settings: not given
A general note: ADP-Glo turns the ADP formed in a reaction into a luminescent signal.
One may read the IC50 as the concentration needed to halve the response being measured. As for `N#Cc1cc(NC(=O)N2CC(O)(C(F)(F)F)c3ccccc32)c2c(c1)C(=O)NC2c1cc(F)ccc1Cl` (stereo not drawn) [Compound I-2473], the 50% inhibitory concentration (IC50) is not above 100 nM.
Regarding `O=C1NC(c2cc(F)ccc2Cl)c2c(NC(=O)N3CC(O)(C(F)(F)F)c4cc(F)ccc43)cccc21` (stereo not drawn) [Compound I-2474], the IC50 is not above 100 nM.
On the same count and under the same terms, as for `O=C1NC(c2cc(F)ccc2Cl)c2c(NC(=O)N3CCc4ccccc43)cccc21` (stereo not drawn) [Compound I-2479], the figure is not above 100 nM.
The same measure, in the same setting: the value for `NCc1cc(NC(=O)N2CC(O)(C(F)(F)F)c3cc(F)ccc32)c2c(c1)C(=O)NC2c1cc(F)ccc1Cl` (stereo not drawn) [Compound I-2568] was not above 100 nM.
Same read-out and setting: the value for `CNc1cc(NC(=O)N2CC(O)(C(F)(F)F)c3cc(F)ccc32)c2c(c1C#N)C(=O)NC2c1cc(F)ccc1Cl` (stereo not drawn) [Compound I-2587] was not above 100 nM; that for `NCc1cc(NC(=O)N2CC(O)(C(F)F)c3cc(F)ccc32)c2c(c1)C(=O)NC2c1cc(F)ccc1Cl` (stereo not drawn) [Compound I-2597] was not above 100 nM.
For `O=C1NC(c2cc(F)ccc2Cl)c2c(NC(=O)N3CC(O)(C(F)F)c4cc(F)ccc43)cc(F)cc21` (stereo not drawn) [Compound I-2622], the IC50 is not above 100 nM.
On the same count and under the same terms, as for `O=C1NC(c2cc(F)ccc2Cl)c2c(NC(=O)N3CC(O)(C(F)(F)F)c4cc(F)ccc43)cc(F)cc21` (stereo not drawn) [Compound I-2623], the figure is not above 100 nM; as for `[2H]C1(c2cc(F)ccc2Cl)NC(=O)c2cccc(NC(=O)N3CC(O)(C(F)(F)F)c4cc(F)ccc43)c21` (stereo not drawn) [Compound I-2648], not above 100 nM.

System in another assay: not listed separately
Kind of assay: cells. The settings on record: Homo sapiens, MCF-10A, read-out: MCF10A IC50.
With `N#Cc1cc(NC(=O)N2CC(O)(C(F)(F)F)c3ccccc32)c2c(c1)C(=O)NC2c1cc(F)ccc1Cl` (stereo not drawn) [Compound I-2473], the half-inhibitory concentration (IC50) is less than 1000 nM.
On the same count and under the same terms, as for `O=C1NC(c2cc(F)ccc2Cl)c2c(NC(=O)N3CC(O)(C(F)(F)F)c4cc(F)ccc43)cccc21` (stereo not drawn) [Compound I-2474], the figure is 1000 to 5000 nM; as for `O=C1NC(c2cc(F)ccc2Cl)c2c(NC(=O)N3CCc4ccccc43)cccc21` (stereo not drawn) [Compound I-2479], 1000 to 5000 nM; as for `NCc1cc(NC(=O)N2CC(O)(C(F)(F)F)c3cc(F)ccc32)c2c(c1)C(=O)NC2c1cc(F)ccc1Cl` (stereo not drawn) [Compound I-2568], 10000 to 36000 nM.
Still for that read-out and setting: the value for `CNc1cc(NC(=O)N2CC(O)(C(F)(F)F)c3cc(F)ccc32)c2c(c1C#N)C(=O)NC2c1cc(F)ccc1Cl` (stereo not drawn) [Compound I-2587] was 1000 to 5000 nM; that for `NCc1cc(NC(=O)N2CC(O)(C(F)F)c3cc(F)ccc32)c2c(c1)C(=O)NC2c1cc(F)ccc1Cl` (stereo not drawn) [Compound I-2597] was 10000 to 36000 nM; that for `O=C1NC(c2cc(F)ccc2Cl)c2c(NC(=O)N3CC(O)(C(F)F)c4cc(F)ccc43)cc(F)cc21` (stereo not drawn) [Compound I-2622] was 1000 to 5000 nM.
The same measure, in the same setting: as for `O=C1NC(c2cc(F)ccc2Cl)c2c(NC(=O)N3CC(O)(C(F)(F)F)c4cc(F)ccc43)cc(F)cc21` (stereo not drawn) [Compound I-2623], the figure is less than 1000 nM; as for `[2H]C1(c2cc(F)ccc2Cl)NC(=O)c2cccc(NC(=O)N3CC(O)(C(F)(F)F)c4cc(F)ccc43)c21` (stereo not drawn) [Compound I-2648], less than 1000 nM.

The values are drawn from patent US12581252B2, “Substituted pyrrolo[3,4-b]pyridines as PI3K-α inhibitors” (Relay Therapeutics, Inc., priority 2020, dated 2026).
